Article PMC9229919, “4-Aminoquinoline-Based Adamantanes as Potential Anticholinesterase Agents in Symptomatic Treatment of Alzheimer’s Disease” (Pharmaceutics, 2022)
Read-outs that look alike come from different tables or passages of the source.

Experiments:
[1] = Reverse-phase thin-layer chromatographic lipophilicity (RF, RM0); format: physicochemical; settings: for RM0: intercept of RM = RM0 + bC; for b: slope of RM = RM0 + bC; for RF, Methanol/Water/Hydrochloric acid (conc.), mobile phase I: I = 90%MeOH/5%H2O/5%HCl; for RF, Dioxane/Water/Hydrochloric acid (conc.), mobile phase II: II = 80%Dioxane/15%H2O/5%HCl; for RF, Methanol/Water/Hydrochloric acid (conc.), mobile phase II: II = 85%MeOH/10%H2O/5%HCl; for RF, Acetone/Water/Hydrochloric acid (conc.), mobile phase III: III = 70%AC/25%H2O/5%HCl; for RF, Dioxane/Water/Hydrochloric acid (conc.), mobile phase III: III = 70%Dioxane/25%H2O/5%HCl; for RF, Methanol/Water/Hydrochloric acid (conc.), mobile phase III: III = 80%MeOH/15%H2O/5%HCl; for RF, Dioxane/Water/Hydrochloric acid (conc.), mobile phase IV: IV = 60%Dioxane/35%H2O/5%HCl; for RF, Acetone/Water/Hydrochloric acid (conc.), mobile phase IV: IV = 65%AC/30%H2O/5%HCl; for RF, Methanol/Water/Hydrochloric acid (conc.), mobile phase IV: IV = 75%MeOH/20%H2O/5%HCl; for RF, Acetone/Water/Hydrochloric acid (conc.), mobile phase IX: IX = 40%AC/55%H2O/5%HCl; for RF, Methanol/Water/Hydrochloric acid (conc.), mobile phase IX: IX = 50%MeOH/45%H2O/5%HCl; for RF, Dioxane/Water/Hydrochloric acid (conc.), mobile phase V: V = 50%Dioxane/45%H2O/5%HCl; for RF, Acetone/Water/Hydrochloric acid (conc.), mobile phase V: V = 60%AC/35%H2O/5%HCl; for RF, Methanol/Water/Hydrochloric acid (conc.), mobile phase V: V = 70%MeOH/25%H2O/5%HCl; for RF, Dioxane/Water/Hydrochloric acid (conc.), mobile phase VI: VI = 40%Dioxane/55%H2O/5%HCl; for RF, Acetone/Water/Hydrochloric acid (conc.), mobile phase VI: VI = 55%AC/40%H2O/5%HCl; for RF, Methanol/Water/Hydrochloric acid (conc.), mobile phase VI: VI = 65%MeOH/30%H2O/5%HCl; for RF, Acetone/Water/Hydrochloric acid (conc.), mobile phase VII: VII = 50%AC/45%H2O/5%HCl; for RF, Methanol/Water/Hydrochloric acid (conc.), mobile phase VII: VII = 60%MeOH/35%H2O/5%HCl; for RF, Acetone/Water/Hydrochloric acid (conc.), mobile phase VIII: VIII = 45%AC/50%H2O/5%HCl; for RF, Methanol/Water/Hydrochloric acid (conc.), mobile phase VIII: VIII = 55%MeOH/40%H2O/5%HCl
How it was run: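 Reverse-phase TLC using mobile phases of methanol, acetone or dioxane with water and hydrochloric acid. Methanol varied in 10% steps; development distance 4.5 cm, ambient temperature (22±2 °C). RF measured and RM0 derived from retention.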

purified human BChE = biological target: T1, purified human BChE (Homo sapiens, UniProt P06276); experiment: biochemical; format: biochemical
T1 construct: possibly also a gift of Dr Florian Nachon (the sentence is ambiguous)
How it was run: (§1)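 Modified Ellman assay with acetylthiocholine and DTNB in 0.1 M sodium phosphate pH 7.4 (enzymes diluted with 0.1% BSA), ≤0.2% DMSO, 25 °C. At least three inhibitor concentrations per substrate level; Ki,app from Hunter–Downs equation, Ki from y-intercept and inhibition type from Ki,app vs [S].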

recombinant human AChE = biological target: T2, recombinant human AChE (Homo sapiens, UniProt P22303); experiment: biochemical; format: biochemical; settings: for IS: IS = Ki(BChE)/Ki(AChE), IS > 1 selective to AChE
T2 construct: gift of Dr Florian Nachon (Armed Forces Biomedical Research Institute, Brétigny-sur-Orge, France)
How it was run: as §1

[2] = Ferric reducing antioxidant power (FRAP) assay; settings: mean ± standard error of three experiments;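 also: expressed as µM Fe2+ equivalents from an FeSO4·7H2O standard curve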
How it was run: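 Compounds at 10 and 100 µM were mixed with FRAP reagent (300 mM acetate buffer pH 3.6, TPTZ in HCl, FeCl3, 10:1:1) and incubated 60 min at 37 °C. Fe^2+-TPTZ formation read at 593 nm against a blank. Values derived from an Fe2SO4·7H2O standard curve, three independent experiments.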

[3] = Acetone/Water/Hydrochloric acid (conc.)
[4] = Dioxane/Water/Hydrochloric acid (conc.)
[5] = Methanol/Water/Hydrochloric acid (conc.)
[6] = ± standard error, 25 °C, ATCh substrate, read-out: Ki BChE
[7] = ± standard error, 25 °C, ATCh substrate, read-out: Ki AChE
[8] = log (Ki/µM AChE), read-out: Y Measured 1 log(ki)Ache (converted)

T2 sequence (P22303 32-614): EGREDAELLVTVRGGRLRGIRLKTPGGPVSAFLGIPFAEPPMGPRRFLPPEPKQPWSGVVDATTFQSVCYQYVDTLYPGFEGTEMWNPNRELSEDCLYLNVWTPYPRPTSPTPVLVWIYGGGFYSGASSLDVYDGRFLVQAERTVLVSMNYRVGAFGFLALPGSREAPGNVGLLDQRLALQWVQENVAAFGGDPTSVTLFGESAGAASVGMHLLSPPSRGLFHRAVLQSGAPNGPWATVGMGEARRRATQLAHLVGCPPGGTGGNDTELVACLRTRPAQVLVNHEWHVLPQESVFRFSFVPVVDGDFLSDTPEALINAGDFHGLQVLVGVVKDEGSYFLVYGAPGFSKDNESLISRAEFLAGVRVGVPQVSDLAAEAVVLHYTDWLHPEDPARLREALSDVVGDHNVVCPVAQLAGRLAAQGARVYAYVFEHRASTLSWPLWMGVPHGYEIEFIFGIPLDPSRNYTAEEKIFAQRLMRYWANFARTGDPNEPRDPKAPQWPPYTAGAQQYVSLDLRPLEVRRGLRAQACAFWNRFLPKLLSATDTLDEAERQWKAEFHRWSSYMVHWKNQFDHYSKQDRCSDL
T1 sequence (P06276 29-602): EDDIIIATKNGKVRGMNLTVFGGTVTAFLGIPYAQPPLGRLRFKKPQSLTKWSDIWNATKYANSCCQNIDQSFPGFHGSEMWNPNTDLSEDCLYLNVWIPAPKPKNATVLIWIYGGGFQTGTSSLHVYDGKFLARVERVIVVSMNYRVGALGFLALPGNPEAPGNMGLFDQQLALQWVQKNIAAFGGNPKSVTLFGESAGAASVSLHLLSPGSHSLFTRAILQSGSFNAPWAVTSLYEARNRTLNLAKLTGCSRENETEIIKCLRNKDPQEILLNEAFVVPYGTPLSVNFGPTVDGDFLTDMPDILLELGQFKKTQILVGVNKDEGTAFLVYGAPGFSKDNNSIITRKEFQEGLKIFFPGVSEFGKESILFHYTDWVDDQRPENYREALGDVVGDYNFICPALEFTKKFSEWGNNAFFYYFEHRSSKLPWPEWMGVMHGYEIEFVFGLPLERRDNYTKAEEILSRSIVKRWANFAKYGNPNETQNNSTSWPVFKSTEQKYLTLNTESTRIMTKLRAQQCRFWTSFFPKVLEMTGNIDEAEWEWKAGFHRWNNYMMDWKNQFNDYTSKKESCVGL

Row | SMILES | RM0 [1, 3] | b [1, 3] | RM0 [1, 4] | b [1, 4] | RM0 [1, 5] | b [1, 5] | RF, Methanol/Water/Hydrochloric acid (conc.), mobile phase I ([1]; RP-18 silica) | RF, Dioxane/Water/Hydrochloric acid (conc.), mobile phase II ([1]; RP-18 silica) | RF, Methanol/Water/Hydrochloric acid (conc.), mobile phase II ([1]; RP-18 silica) | RF, Acetone/Water/Hydrochloric acid (conc.), mobile phase III ([1]; RP-18 silica) | RF, Dioxane/Water/Hydrochloric acid (conc.), mobile phase III ([1]; RP-18 silica) | RF, Methanol/Water/Hydrochloric acid (conc.), mobile phase III ([1]; RP-18 silica) | RF, Dioxane/Water/Hydrochloric acid (conc.), mobile phase IV ([1]; RP-18 silica) | RF, Acetone/Water/Hydrochloric acid (conc.), mobile phase IV ([1]; RP-18 silica) | RF, Methanol/Water/Hydrochloric acid (conc.), mobile phase IV ([1]; RP-18 silica) | RF, Acetone/Water/Hydrochloric acid (conc.), mobile phase IX ([1]; RP-18 silica) | RF, Methanol/Water/Hydrochloric acid (conc.), mobile phase IX ([1]; RP-18 silica) | RF, Dioxane/Water/Hydrochloric acid (conc.), mobile phase V ([1]; RP-18 silica) | RF, Acetone/Water/Hydrochloric acid (conc.), mobile phase V ([1]; RP-18 silica) | RF, Methanol/Water/Hydrochloric acid (conc.), mobile phase V ([1]; RP-18 silica) | other results
1 | Clc1ccc2c(NCCCCCN(CCC34CC5CC(CC(C5)C3)C4)CCC34CC5CC(CC(C5)C3)C4)ccnc2c1 [Compound 11] | 3.759 | 4.955 | 2.01 | 2.862 | 5.504 | 5.94 | 0.43 | 0.64 | 0.31 | 0.32 | 0.58 | 0.09 | 0.47 | 0.27 | 0.09 | 0 | 0 | 0.13 | 0.12 | 0.05 | RF, Acetone/Water/Hydrochloric acid (conc.), mobile phase I ([1]; RP-18 silica, I = 80%AC/15%H2O/5%HCl): 0.58; RF, Dioxane/Water/Hydrochloric acid (conc.), mobile phase I ([1]; RP-18 silica, I = 90%Dioxane/5%H2O/5%HCl): 0.74; RF, Acetone/Water/Hydrochloric acid (conc.), mobile phase II ([1]; RP-18 silica, II = 75%AC/20%H2O/5%HCl): 0.52; RF, Dioxane/Water/Hydrochloric acid (conc.), mobile phase VI ([1]; RP-18 silica): 0; RF, Acetone/Water/Hydrochloric acid (conc.), mobile phase VI ([1]; RP-18 silica): 0.08; RF, Methanol/Water/Hydrochloric acid (conc.), mobile phase VI ([1]; RP-18 silica): 0.01; RF, Acetone/Water/Hydrochloric acid (conc.), mobile phase VII ([1]; RP-18 silica): 0; RF, Methanol/Water/Hydrochloric acid (conc.), mobile phase VII ([1]; RP-18 silica): 0; RF, Acetone/Water/Hydrochloric acid (conc.), mobile phase VIII ([1]; RP-18 silica): 0; RF, Methanol/Water/Hydrochloric acid (conc.), mobile phase VIII ([1]; RP-18 silica): 0; Ki (purified human BChE; [6]): 0.82 ± 0.04 µM; IS (recombinant human AChE): 2.5; Ki (recombinant human AChE; [7]): 0.33 ± 0.01 µM; FRAP ([2]; 10 µM compound): 5.3 ± 1.4 µM; FRAP ([2]; 100 µM compound): 23 ± 4 µM
2 | CC(CCNCC12CC3CC(CC(C3)C1)C2)Nc1ccnc2cc(Cl)ccc12 (centres unmarked) [Compound 12] | 1.835 | 3.007 | 0.75 | 1.647 | 2.4121 | 3.174 | 0.71 | 0.75 | 0.66 | 0.62 | 0.72 | 0.53 | 0.72 | 0.58 | 0.5 | 0.15 | 0.1 | 0.54 | 0.48 | 0.44 | RF, Dioxane/Water/Hydrochloric acid (conc.), mobile phase VI ([1]; RP-18 silica): 0.4; RF, Acetone/Water/Hydrochloric acid (conc.), mobile phase VI ([1]; RP-18 silica): 0.41; RF, Methanol/Water/Hydrochloric acid (conc.), mobile phase VI ([1]; RP-18 silica): 0.36; RF, Acetone/Water/Hydrochloric acid (conc.), mobile phase VII ([1]; RP-18 silica): 0.34; RF, Methanol/Water/Hydrochloric acid (conc.), mobile phase VII ([1]; RP-18 silica): 0.25; RF, Acetone/Water/Hydrochloric acid (conc.), mobile phase VIII ([1]; RP-18 silica): 0.29; RF, Methanol/Water/Hydrochloric acid (conc.), mobile phase VIII ([1]; RP-18 silica): 0.18; Ki (purified human BChE; Ki BChE, ± standard error, 25 °C, ATCh substrate): 1.2 ± 0.1 µM; IS (recombinant human AChE): 2.1; Ki (recombinant human AChE; [8]): 0.56 µM; Ki (recombinant human AChE; [7]): 0.56 ± 0.02 µM; FRAP ([2]; 10 µM compound): 24.2 ± 0.0 µM; FRAP ([2]; 100 µM compound): 37 ± 7 µM
3 | CC(CCNCC12CC3CC(CC(C3)C1)C2)Nc1ccnc2cc(C(F)(F)F)ccc12 (centres unmarked) [Compound 13] | 2.073 | 3.206 | 0.9361 | 1.847 | 2.626 | 3.42 | 0.72 | 0.73 | 0.66 | 0.56 | 0.7 | 0.5 | 0.7 | 0.52 | 0.49 | 0.1 | 0.09 | 0.5 | 0.4 | 0.42 | RF, Dioxane/Water/Hydrochloric acid (conc.), mobile phase VI ([1]; RP-18 silica): 0.33; RF, Acetone/Water/Hydrochloric acid (conc.), mobile phase VI ([1]; RP-18 silica): 0.34; RF, Methanol/Water/Hydrochloric acid (conc.), mobile phase VI ([1]; RP-18 silica): 0.34; RF, Acetone/Water/Hydrochloric acid (conc.), mobile phase VII ([1]; RP-18 silica): 0.3; RF, Methanol/Water/Hydrochloric acid (conc.), mobile phase VII ([1]; RP-18 silica): 0.22; RF, Acetone/Water/Hydrochloric acid (conc.), mobile phase VIII ([1]; RP-18 silica): 0.23; RF, Methanol/Water/Hydrochloric acid (conc.), mobile phase VIII ([1]; RP-18 silica): 0.14; Ki (purified human BChE; logarithm of Ki in µM, BChE, dependent variable of the QSAR model, read-out: Y Measured 2 log(ki)Bche, log (Ki/µM BChE) (converted)): 1.4 µM; Ki (purified human BChE; [6]): 1.8 ± 0.3 µM; Ki (recombinant human AChE; [8]): 0.91 µM; Ki (recombinant human AChE; [7]): 0.91 ± 0.05 µM; FRAP ([2]; 10 µM compound): 19 ± 7 µM; FRAP ([2]; 100 µM compound): 64 ± 5 µM
